Experimental data from patent US11401286B2 (Tetra Discovery Partners, LLC, priority 2012, dated 2022).
pIC50: −log10 of the molar value. Where a name gives a salt, the structure may show the parent alone. Read-outs that look alike come from different tables or passages of the source.

Molecular target: PDE4D7 (Homo sapiens (Human), UniProt Q08499)
Details: read-out: PDE4D7 IC50

Sequence of PDE4D7 (Q08499 other isoform, or with tags, fused parts or gaps): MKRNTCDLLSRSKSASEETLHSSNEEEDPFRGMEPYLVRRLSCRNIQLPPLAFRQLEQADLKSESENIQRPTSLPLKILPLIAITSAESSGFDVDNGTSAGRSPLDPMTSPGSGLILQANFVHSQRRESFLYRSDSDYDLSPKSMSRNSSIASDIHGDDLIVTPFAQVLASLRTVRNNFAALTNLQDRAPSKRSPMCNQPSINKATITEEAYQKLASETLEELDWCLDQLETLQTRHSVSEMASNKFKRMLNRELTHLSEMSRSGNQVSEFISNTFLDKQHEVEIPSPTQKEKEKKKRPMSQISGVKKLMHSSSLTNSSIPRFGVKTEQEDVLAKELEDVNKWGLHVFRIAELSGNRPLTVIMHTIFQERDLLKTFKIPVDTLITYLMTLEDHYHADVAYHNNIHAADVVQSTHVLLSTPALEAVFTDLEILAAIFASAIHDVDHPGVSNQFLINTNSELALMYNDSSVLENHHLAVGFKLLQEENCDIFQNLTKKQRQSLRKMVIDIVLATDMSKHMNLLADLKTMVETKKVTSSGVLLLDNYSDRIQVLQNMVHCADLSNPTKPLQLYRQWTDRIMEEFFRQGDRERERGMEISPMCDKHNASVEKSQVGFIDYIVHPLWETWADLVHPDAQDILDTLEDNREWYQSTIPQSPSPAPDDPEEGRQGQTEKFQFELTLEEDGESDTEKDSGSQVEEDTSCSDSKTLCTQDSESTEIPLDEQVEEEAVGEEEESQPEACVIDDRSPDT

Row | SMILES | pIC50 (PDE4D7 without asterisk) | pIC50
1 | O=C(O)COc1ccc(Nc2cc(-c3cccc(Cl)c3)nc3c2CCC3)cc1 [Example 4, 2-[4-[[2-(3-Chlorophenyl)-6,7-dihydro-5H-cyclopenta[b]pyridin-4-yl]amino]phenoxy]acetic acid] | – | < 6.00
2 | O=C(O)c1ccc(Nc2cc(-c3cccc(Cl)c3)nc3c2CCC3)cc1 [Example 5, 4-[[2-(3-Chlorophenyl)-6,7-dihydro-5H-cyclopenta[b]pyridin-4-yl]amino]benzoic acid] | < 6.00 | –
3 | OCCc1ccc(Nc2cc(-c3cccc(Cl)c3)nc3c2CCC3)cc1 [Example 6, 2-[4-[[2-(3-Chlorophenyl)-6,7-dihydro-5H-cyclopenta[b]pyridin-4-yl]amino]phenyl]ethanol] | < 6.00 | –
4 | O=C(O)CCCc1ccc(Nc2cc(-c3cccc(Cl)c3)nc3c2CCC3)cc1 [Example 8, 4-[4-[[2-(3-Chlorophenyl)-6,7-dihydro-5H-cyclopenta[b]pyridin-4-yl]amino]phenyl]butanoic acid] | < 6.00 | –
5 | O=C(O)Cc1ccc(Nc2nc(-c3ccc(Cl)s3)nc3c2CCC3)cc1 [Example 9, 2-[4-[[2-(5-Chloro-2-thienyl)-6,7-dihydro-5H-cyclopenta[d]pyrimidin-4-yl]amino]phenyl]acetic acid] | < 6.00 | –
6 | O=C(O)Cc1ccc(Nc2nc(-c3cccc(Cl)c3)nc3c2CCC3)cc1 [Example 10, 2-[4-[[2-(3-Chlorophenyl)-6,7-dihydro-5H-cyclopenta[d]pyrimidin-4-yl]amino]phenyl]acetic acid] | < 6.00 | –
7 | CC(=O)NC(C(=O)O)c1ccc(Nc2nc(-c3ccc(Cl)s3)nc3c2CCC3)cc1 (stereo not drawn) [Example 11, 2-Acetamido-2-[4-[[2-(5-chloro-2-thienyl)-6,7-dihydro-5H-cyclopenta[d]pyrimidin-4-yl]amino]phenyl]acetic acid] | < 6.00 | –
8 | NC(C(=O)O)c1ccc(Nc2nc(-c3ccc(Cl)s3)nc3c2CCC3)cc1 (stereo not drawn) [Example 12, 2-Amino-2-[4-[[2-(5-chloro-2-thienyl)-6,7-dihydro-5H-cyclopenta[d]pyrimidin-4-yl]amino]phenyl]acetic acid hydrochloride] | < 6.00 | –
9 | O=C(O)CCc1ccc(Nc2nc(-c3ccc(Cl)s3)nc3c2CCC3)cc1 [Example 15, 3-[4-[[2-(5-Chloro-2-thienyl)-6,7-dihydro-5H-cyclopenta[d]pyrimidin-4-yl]amino]phenyl]propanoic acid] | < 6.00 | –
10 | O=C(O)CCc1ccc(Nc2nc(-c3cccc(Cl)c3)nc3c2CCC3)cc1 [Example 16, 3-[4-[[2-(3-Chlorophenyl)-6,7-dihydro-5H-cyclopenta[d]pyrimidin-4-yl]amino]phenyl]propanoic acid] | < 6.00 | –
11 | N#CCc1ccc(Nc2nc(-c3cccc(Cl)c3)nc3c2CCC3)cc1 [Example 19, 2-[4-[[2-(3-chlorophenyl)-6,7-dihydro-5H-cyclopenta[d]pyrimidin-4-yl]amino]phenyl]acetonitrile] | < 6.00 | –
12 | NC(=O)Cc1ccc(Nc2nc(-c3ccc(Cl)s3)nc3c2CCC3)cc1 [Example 20, 2-[4-[[2-(5-chloro-2-thienyl)-6,7-dihydro-5H-cyclopenta[d]pyrimidin-4-yl]amino]phenyl]acetamide] | > 6.00 | –
13 | NC(=O)Cc1ccc(Nc2nc(-c3cccc(Cl)c3)nc3c2CCC3)cc1 [Example 21, 2-[4-[[2-(3-chlorophenyl)-6,7-dihydro-5H-cyclopenta[d]pyrimidin-4-yl]amino]phenyl]acetamide] | < 6.00 | –
14 | Cc1nc(Nc2ccc(F)cc2)nc(-c2ccc(Cl)s2)n1 [Example 23, 4-(5-chlorothiophen-2-yl)-N-(4-fluorophenyl)-6-methyl-1,3,5-triazin-2-amine] | < 6.00 | –
15 | Cc1nc(Nc2ccc(CC(=O)O)cc2)nc(-c2ccco2)n1 [Example 24, 2-(4-((4-(furan-2-yl)-6-methyl-1,3,5-triazin-2-yl)amino)phenyl)acetic acid] | < 6.00 | –
16 | CC(C)c1nc(Nc2ccc(CC(=O)O)cc2)nc(-c2ccc(Cl)s2)n1 [Example 25, 2-(4-((4-(5-chlorothiophen-2-yl)-6-isopropyl-1,3,5-triazin-2-yl)amino)phenyl)acetic acid] | < 6.00 | –
17 | CC(C)c1nc(Nc2ccc(F)cc2)nc(-c2ccc(Cl)s2)n1 [Example 26, 4-(5-chlorothiophen-2-yl)-N-(4-fluorophenyl)-6-isopropyl-1,3,5-triazin-2-amine] | < 6.00 | –
18 | CC(C)c1nc(Nc2ccc(C(=O)O)cc2)nc(-c2ccc(Cl)s2)n1 [Example 29, 4-(4-(5-chlorothiophen-2-yl)-6-isopropyl-1,3,5-triazin-2-ylamino)benzoic acid] | > 6.00 | –
19 | Cc1nc(Nc2ccc(C(=O)O)cc2)nc(-c2ccc(Cl)s2)n1 [Example 31, 4-(4-(5-chlorothiophen-2-yl)-6-methyl-1,3,5-triazin-2-ylamino)benzoic acid] | < 6.00 | –
20 | CCCc1nc(Nc2ccc(C(=O)O)cc2)nc(-c2ccc(Cl)s2)n1 [Example 33, 4-((4-(5-chlorothiophen-2-yl)-6-propyl-1,3,5-triazin-2-yl)amino)benzoic acid] | < 6.00 | –
21 | O=C(O)Cc1ccc(Nc2nc(-c3ccc(Cl)s3)nc(C3CC3)n2)cc1 [Example 34, 2-(4-(4-(5-chlorothiophen-2-yl)-6-cyclopropyl-1,3,5-triazin-2-ylamino)phenyl)acetic acid] | < 6.00 | –
22 | COC(=O)Cc1ccc(Nc2nc(Cl)nc(-c3ccc(Cl)s3)n2)cc1 [Example 35, methyl 2-(4-((4-chloro-6-(5-chlorothiophen-2-yl)-1,3,5-triazin-2-yl)amino)phenyl)acetate] | < 6.00 | –
23 | O=C(O)c1ccc(Nc2nc(-c3ccc(Cl)cc3)nc(C3CC3)n2)cc1 [Example 38, 4-((4-(4-chlorophenyl)-6-cyclopropyl-1,3,5-triazin-2-yl)amino)benzoic acid] | > 6.00 | –
24 | CCc1nc(Nc2ccc(CC(=O)O)cc2)nc(-c2cccc(Cl)c2)n1 [Example 39, 2-(4-((4-(3-chlorophenyl)-6-ethyl-1,3,5-triazin-2-yl)amino)phenyl)acetic acid] | < 6.00 | –
25 | CCc1nc(Nc2ccc(C(=O)O)cc2)nc(-c2cccc(Cl)c2)n1 [Example 40, 4-((4-(3-chlorophenyl)-6-ethyl-1,3,5-triazin-2-yl)amino)benzoic acid] | > 6.00 | –
26 | CCc1cc(Cc2ccc(CC(=O)O)cc2)nc(-c2cccc(Cl)c2)n1 [Example 66, 2-(4-((2-(3-chlorophenyl)-6-ethylpyrimidin-4-yl)methyl)phenyl)acetic acid] | < 6.00 | –

Second part, led by results:

Row | pIC50 (PDE4D7 without asterisk) | SMILES | pIC50
27 | < 6.00 | CCc1c(Nc2ccc(CC(=O)O)cc2)cc(-c2cccc(Cl)c2)nc1C [Example 7, 2-[4-[[6-(3-Chlorophenyl)-3-ethyl-2-methyl-4-pyridyl]amino]phenyl]acetic acid] | –
28 | < 6.00 | CCc1nc(Nc2ccc(CC(=O)O)cc2)nc(-c2ccc(Cl)s2)n1 [Example 27, 2-(4-((4-(5-chlorothiophen-2-yl)-6-ethyl-1,3,5-triazin-2-yl)amino)phenyl)acetic acid] | –
29 | < 6.00 | CCc1nc(Nc2ccc(F)cc2)nc(-c2ccc(Cl)s2)n1 [Example 28, 4-(5-chlorothiophen-2-yl)-6-ethyl-N-(4-fluorophenyl)-1,3,5-triazin-2-amine] | –
30 | > 6.00 | CCc1nc(Nc2ccc(C(=O)O)cc2)nc(-c2ccc(Cl)s2)n1 [Example 30, 4-(4-(5-chlorothiophen-2-yl)-6-ethyl-1,3,5-triazin-2-ylamino)benzoic acid] | –
31 | < 6.00 | CCCc1nc(Nc2ccc(CC(=O)O)cc2)nc(-c2ccc(Cl)s2)n1 [Example 32, 2-(4-((4-(5-chlorothiophen-2-yl)-6-propyl-1,3,5-triazin-2-yl)amino)phenyl)acetic acid] | –
32 | < 6.00 | O=C(O)Cc1ccc(Nc2nc(-c3cccc(Cl)c3)nc(C3CC3)n2)cc1 [Example 36, 2-(4-((4-(3-chlorophenyl)-6-cyclopropyl-1,3,5-triazin-2-yl)amino)phenyl)acetic acid] | –
33 | < 6.00 | O=C(O)Cc1ccc(Nc2nc(-c3ccc(Cl)cc3)nc(C3CC3)n2)cc1 [Example 37, 2-(4-((4-(4-chlorophenyl)-6-cyclopropyl-1,3,5-triazin-2-yl)amino)phenyl)acetic acid] | –
34 | > 6.00 | O=C(O)c1ccc(Nc2nc(-c3cccc(Cl)c3)nc(C3CC3)n2)cc1 [Example 41, 4-((4-(3-chlorophenyl)-6-cyclopropyl-1,3,5-triazin-2-yl)amino)benzoic acid] | –
35 | < 6.00 | O=C(O)Cc1ccc(Oc2nc(-c3cccc(Cl)c3)nc(C3CC3)n2)cc1 [Example 43, 2-(4-((4-(3-chlorophenyl)-6-cyclopropyl-1,3,5-triazin-2-yl)oxy)phenyl)acetic acid] | –
36 | > 6.00 | CCc1nc(Nc2ccc(C#N)cc2)nc(-c2cccc(Cl)c2)n1 [Example 51, 4-(4-(3-chlorophenyl)-6-ethyl-1,3,5-triazin-2-ylamino)benzonitrile] | –
37 | > 6.00 | CCc1nc(Nc2ccc(CC#N)cc2)nc(-c2cccc(Cl)c2)n1 [Example 52, 2-(4-(4-(3-chlorophenyl)-6-ethyl-1,3,5-triazin-2-ylamino)phenyl)acetonitrile] | –
38 | > 6.00 | CCc1nc(Nc2ccc(CC(N)=O)cc2)nc(-c2cccc(Cl)c2)n1 [Example 57, 2-(4-(4-(3-chlorophenyl)-6-ethyl-1,3,5-triazin-2-ylamino)phenyl)acetamide] | –
39 | > 6.00 | CCc1nc(Nc2ccc(CCO)cc2)nc(-c2cccc(Cl)c2)n1 [Example 58, 2-(4-(4-(3-chlorophenyl)-6-ethyl-1,3,5-triazin-2-ylamino)phenyl)ethanol] | –
40 | < 6.00 | CCc1nc(Oc2ccc(CC(N)=O)cc2)nc(-c2cccc(Cl)c2)n1 [Example 61, 2-(4-((4-(3-chlorophenyl)-6-ethyl-1,3,5-triazin-2-yl)oxy)phenyl)acetamide] | –
41 | > 6.00 | CCc1nc(Nc2ccc(C(N)=O)cc2)nc(-c2cccc(Cl)c2)n1 [Example 62, 4-(4-(3-chlorophenyl)-6-ethyl-1,3,5-triazin-2-ylamino)benzamide] | –
42 | > 6.00 | CCc1cc(Cc2ccc(CC(N)=O)cc2)nc(-c2cccc(Cl)c2)n1 [Example 65, 2-(4-((2-(3-Chlorophenyl)-6-ethylpyrimidin-4-yl)methyl)phenyl)acetamide] | –
